Results on 15 compounds are retold here after patent publication US11149018B2, “Substituted N-arylethyl-2-aminoquinoline-4-carboxamides and use thereof” (Bayer Aktiengesellschaft, priority 2017, dated 2021).

The test system of assay [1] is C57Bl6J mice with DQ12 silica-induced pulmonary fibrosis. In words: Silica-induced pulmonary fibrosis in mice, therapeutic chronic 30-day study. Format: in vivo, mouse. The settings on record: 10 and 30 mg/kg po bid, versus silica-treated control. Here is the method:
B-23. Silica-Induced Pulmonary Fibrosis in Mice: Therapeutic Chronic 30-Day Study with FP Antagonists
Adult female C57Bl6J mice (Charles River Laboratories, Sulzfeld, Germany) having a weight of 18-20 g were anaesthetized in a chamber with isoflurane (3% v/v) and treated intratracheally with 2.5 mg of crystalline DQ12 silica dissolved in 70 μL of sterile phosphate-buffered saline. Untreated control mice received the same volume of phosphate-buffered saline. […] 30 days after the installation of silica, the animals were anaesthetized with an intraperitoneal injection of ketamine/medetomidine (50 mg/kg and 0.33 mg/kg) combined with a subcutaneous injection of Temgesic (0.06 mg/kg) and sacrifice by exsanguination. Thereafter, the trachea was cannulated, and the animals' lungs were lavaged three times with 0.5 ml of ice-cold phosphate-buffered saline. Thereafter, the lungs were removed, weighed and shock-frozen in dry ice. […] The data are mean values±SEM of 8-12 animals per group. The statistical analysis was conducted with the unpaired Student's t test. P values<0.05 were considered to be significant.

For the next assay, the target named is FP receptor (Homo sapiens (Human), UniProt P43088). Kind of assay: In vitro test of inhibition of human FP receptor activity (PGF2α-induced calcium flux in FP-expressing CHEM1 cells). Format: cell-based. The settings on record: PGF2α 2 nM, some mean values of multiple determinations. The procedure, abridged:
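FP antagonism in FP-expressing CHEM1 cells loaded with Fluo-8. Compound preincubated 10 min at 37° C, then receptor stimulated with 2 nM (final) PGF2α in calcium-free Tyrode with 2 mM CaCl2.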
In general terms: Calcium flux is commonly read through the fluorescence of an indicator in the cells.

Chain of FP receptor (P43088 whole entry): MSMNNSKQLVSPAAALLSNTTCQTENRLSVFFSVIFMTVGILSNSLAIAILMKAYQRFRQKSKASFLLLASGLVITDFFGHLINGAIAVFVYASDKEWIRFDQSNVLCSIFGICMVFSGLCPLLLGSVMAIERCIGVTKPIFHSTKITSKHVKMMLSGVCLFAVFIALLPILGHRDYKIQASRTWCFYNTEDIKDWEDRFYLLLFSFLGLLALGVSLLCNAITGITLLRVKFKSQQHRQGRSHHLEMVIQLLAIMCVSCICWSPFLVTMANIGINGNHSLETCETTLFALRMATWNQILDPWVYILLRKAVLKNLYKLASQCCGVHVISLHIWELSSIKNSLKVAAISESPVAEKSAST

For `Cc1c(N2CCCC2)nc2ccc(Br)cc2c1C(=O)NCC(CCC(=O)O)c1ccccc1Cl` (single isomer, unassigned; (+)) [Example 35, (+)-5-({[6-bromo-3-methyl-2-(pyrrolidin-1-yl)quinolin-4-yl]carbonyl}amino)-4-(2-chlorophenyl)pentanoic acid], in assay [1], the “Hydroxyproline formation and fibrosis (result in words)” value was “significant reduction in the hydroxyproline formation and fibrosis”. For orientation: IC50 means the concentration that inhibits the measured activity by half. As for `Cc1c(N2CCCC(F)C2)nc2ccc(Br)cc2c1C(=O)NCC(CCC(=O)O)c1c(F)ccc(F)c1Cl` (stereo not drawn) [Example 156, 5-[({6-Bromo-2-[3-fluoropiperidin-1-yl]-3-methylquinolin-4-yl}carbonyl)amino]-4-(2-chloro-3,6-difluorophenyl)pentanoic acid], at FP receptor, the IC50 was 2.5 nM. Consider `Cc1c(N2CCCC(C)C2)nc2ccc(Br)cc2c1C(=O)NCC(CCC(=O)O)c1c(F)ccc(F)c1Cl` (stereo not drawn) [Example 157, 5-[({6-Bromo-3-methyl-2-[3-methylpiperidin-1-yl]quinolin-4-yl}carbonyl)amino]-4-(2-chloro-3,6-difluorophenyl)pentanoic acid], for which the IC50 on FP receptor was found to be 1.7 nM.

`CCC1CCCN(c2nc3ccc(Br)cc3c(C(=O)NCC(CCC(=O)O)c3c(F)ccc(F)c3Cl)c2C)C1` (stereo not drawn) [Example 158, 5-[({6-Bromo-2-[3-ethylpiperidin-1-yl]-3-methylquinolin-4-yl}carbonyl)amino]-4-(2-chloro-3,6-difluorophenyl)pentanoic acid]: the IC50 on FP receptor came to 1.6 nM. Still for that read-out and setting: for `Cc1c(N2CCCC(F)C2)nc2ccc(Br)cc2c1C(=O)NCC(CCC(=O)O)c1c(F)cccc1C(F)(F)F` (stereo not drawn) [Example 169, 5-[({6-Bromo-2-[3-fluoropiperidin-1-yl]-3-methylquinolin-4-yl}carbonyl)amino]-4-[2-fluoro-6-(trifluoromethyl)phenyl]pentanoic acid] the value was 9.1 nM; for `CCC1CCCN(c2nc3ccc(Br)cc3c(C(=O)NCC(CCC(=O)O)c3c(F)cccc3C(F)(F)F)c2C)C1` (stereo not drawn) [Example 170, 5-[({6-Bromo-2-[3-ethylpiperidin-1-yl]-3-methylquinolin-4-yl}carbonyl)amino]-4-[2-fluoro-6-(trifluoromethyl)phenyl]pentanoic acid], 2.7 nM. On the same count and under the same terms, to `Cc1c(N2CCCC(F)C2)nc2ccc(Br)cc2c1C(=O)NCC(CCC(=O)O)c1c(Cl)ccc(Cl)c1Cl` (stereo not drawn) [Example 180, 5-[({6-Bromo-2-[3-fluoropiperidin-1-yl]-3-methylquinolin-4-yl}carbonyl)amino]-4-(2,3,6-trichlorophenyl)pentanoic acid] belongs 14 nM; to `CCC1CCCN(c2nc3ccc(Br)cc3c(C(=O)NCC(CCC(=O)O)c3c(Cl)ccc(Cl)c3Cl)c2C)C1` (stereo not drawn) [Example 181, 5-[({6-Bromo-2-[3-ethylpiperidin-1-yl]-3-methylquinolin-4-yl}carbonyl)amino]-4-(2,3,6-trichlorophenyl)pentanoic acid], 6.6 nM; to `Cc1c(N2CCCC(F)C2)nc2ccc(Br)cc2c1C(=O)NCC(CCC(=O)O)c1c(F)cccc1F` (stereo not drawn) [Example 253, 5-[({6-Bromo-2-(3-fluoropiperidin-1-yl)-3-methylquinolin-4-yl}carbonyl)amino]-4-(2,6-difluorophenyl)pentanoic acid], 25 nM. For the compound `CCC1CCCN(c2nc3ccc(Br)cc3c(C(=O)NCC(CCC(=O)O)c3c(F)cccc3F)c2C)C1` (stereo not drawn) [Example 254, 5-[({6-Bromo-2-(3-ethylpiperidin-1-yl)-3-methylquinolin-4-yl}carbonyl)amino]-4-(2,6-difluorophenyl)pentanoic acid], the IC50 on FP receptor turned out to be 2.8 nM.

As to `Cc1c(N2CCCC(F)C2)nc2ccc(Br)cc2c1C(=O)NCC(CCC(=O)O)c1cc(F)ccc1F` (stereo not drawn) [Example 264, 5-[({6-Bromo-2-(3-fluoropiperidin-1-yl)-3-methylquinolin-4-yl}carbonyl)amino]-4-(2,5-difluorophenyl)pentanoic acid], the IC50 on FP receptor amounted to 30 nM. In the case of “(+)-5-({[6-Bromo-3-methyl-2-(piperidin-1-yl)quinolin-4-yl]carbonyl}amino)-4-(2,3,6-trichlorophenyl)pentanoic acid [Example 175]”, on FP receptor, the 50% inhibitory concentration (IC50) is 160 nM. For the compound “(+)-5-[({6-Bromo-3-methyl-2-[(^2H8)pyrrolidin-1-yl]quinolin-4-yl}carbonyl)amino]-4-[2-(trifluoromethyl)phenyl]pentanoic acid [Example 278]”, the IC50 on FP receptor is 34 nM.

In the case of “(+)-5-[({6-Bromo-3-methyl-2-[(^2H10)piperidin-1-yl]quinolin-4-yl}carbonyl)amino]-4-[2-(trifluoromethyl)phenyl]pentanoic acid [Example 270]”, the IC50 at FP receptor came out at 3.3 nM. Take “(−)-5-[({6-Bromo-3-methyl-2-[(^2H10)piperidin-1-yl]quinolin-4-yl}carbonyl)amino]-4-[2-(trifluoromethoxy)phenyl]pentanoic acid [Example 272]”: the IC50 at FP receptor is 0.85 nM.
